Key:
Format in all cases: cell-based, human
WNT signaling = experiment: Immunoblotting of chondrocytes treated with WNT signaling inhibitor; conditions: 10 μM, 4 days, 2D culture in medium E
Experimental: (§1) XAV939 was obtained by Sigma and used at the concentration of 10 μM for 4 days in 2D culture in medium E.
Cells were lysed 30 min on ice in ice-cold RIPA buffer (Life Technologies), supplemented with phosphatase and protease inhibitors (Complete anti-protease cocktail; Roche). Protein (10 μg) was separated by SDS-PAGE (BioRad) and transferred to PVDF membranes (Amersham) Blots were probed with anti-phospho-β-catenin (Cell Signaling; 5651T), TCF-4 (Cell Signaling; 2569), Axin1 (Cell Signaling; 2087), β-actin HRP (Sigma-Aldrich) and GADPH (Cell Signaling; 2118) (1:1000) followed by the HRP-Rabbit or Mouse conjugated antibodies (1:5000).
(§2) In order to validate the role of WNT pathway downregulation during the redifferentiation phase (medium R) (FIG. 1A), the inventors replaced medium R by medium E supplemented with 10 μM of XAV-939, a WNT pathway inhibitor for 4 days (FIG. 7G).

chondrocytes [1] = experiment: Safranin-O staining of GAG in beads from chondrocytes cultured in medium E + WNT inhibitor (2-step method); conditions: medium E + 10 μM inhibitor
Experimental: as §1
Safranin-O staining of cartilage spheres and native cartilage formalin-fixed paraffin-embedded samples was performed, in order to reveal glycosaminoglycans (GAG) on 5 μm paraffin slices. Slides were deparaffinated by Xylol and rehydrated by consecutive alcohol bath (concentration 100%, 95% and 70%) with a final 5-minutes distilled water bath. Then, hematoxylin staining was used for nucleus counterstaining, followed by a 5-minutes wash with running hot water. Fast Green (Sigma F7252) was used to stain the cytoplasm, then washed out with acetic acid. The slides were washed out immediately with distilled water. Safranin-O 0.1% in water bath (Sigma S2255) was applied for staining of GAGs for two and a half minutes, then washed repeatedly with distilled water. Dehydration was achieved by vigorously shaking the rack 10-20 times in alcohol baths (concentration 95% and 100%), followed by a Xylol bath until slides assembly with Eukitt resin (Batch A1113, KiNDO1500).
as §2

chondrocytes [2] = experiment: qPCR of ACAN and COL2A1 mRNA in chondrocytes and beads (2-step method) with WNT inhibitor; conditions: 10 μM in medium E; 2-step method after 2D and 3D culture
Experimental: as §1
Isolation of total RNA was performed by using the RNeasy kit from Qiagen according to the manufacturer's instructions and was measured using a spectrometer. 500 ng of total RNA was used to synthesize cDNA using the PrimeScript RT Reagent Kit (Takara) according to manufacturer's protocol.
Real-time PCR was performed with PowerUp SYBR Green Master Mix (Applied Biosystems) using the QuantStudio 12K Flex Real-Time PCR System (Thermo Fisher Scientific) at the Genomic platform core facilities (University of Geneva). First, efficacy tests were performed for all primers for validation prior utilization. The relative level of each sample was normalized, at least, to […] (ALAS1). RT-PCR reactions were carried out, at least, in technical and biological triplicates, and the average cycle threshold (CT) values were determined.
as §2

SMILES: Oc1nc(-c2ccc(C(F)(F)F)cc2)nc2c1CSCC2 [XAV-939]
- axin (immunoblot) (WNT signaling): increase
- phospho-β-catenin (immunoblot) (WNT signaling): increase
- GAG Safranin-O staining of beads (chondrocytes [1]): presence of hyaline features
- ACAN expression (chondrocytes [2]): increase
- COL2A1 expression (chondrocytes [2]): increase
